Measurements taken from ChEMBL document CHEMBL1687734, “Pharmacokinetics of EDP-420 after multiple oral doses in healthy adult volunteers and in a bioequivalence study” (Antimicrob Agents Chemother, 2009).
Values belong to the compound of their own block, whether it stands above or below them.

Columns and labels:
Format in all cases: ADME, organism-based
Homo sapiens [1] = experiment: Cmax in healthy human plasma assessed as EDP-420 9-keto level at 200 mg, po once daily for 3 days measured after 1 day by HPLC-tandem mass spectrometry; design: dose 200 mg, route oral; settings: in vivo, 24 h
Homo sapiens [2] = experiment: Cmax in healthy human plasma assessed as EDP-420 9-keto level at 200 mg, po once daily for 3 days measured after 3 days by HPLC-tandem mass spectrometry; design: dose 200 mg, route oral; settings: in vivo, 72 h
Homo sapiens [3] = experiment: Tmax in healthy human plasma assessed as EDP-420 9-keto level at 200 mg, po once daily for 3 days measured after 1 day; settings: in vivo, 24 h
Homo sapiens [4] = experiment: Tmax in healthy human plasma assessed as EDP-420 9-keto level at 200 mg, po once daily for 3 days measured after 3 days; settings: in vivo, 72 h
Homo sapiens [5] = experiment: AUC (0 to last) in healthy human plasma assessed as EDP-420 9-keto level at 200 mg, po once daily for 3 days measured after 1 day; design: dose 200 mg, time 0 - last, route oral; settings: in vivo, 24 h
Homo sapiens [6] = experiment: AUC (0 to last) in healthy human plasma assessed as EDP-420 9-keto level at 200 mg, po once daily for 3 days measured after 3 days; design: dose 200 mg, time 0 - last, route oral; settings: in vivo, 72 h
Homo sapiens [7] = experiment: AUC (0 to infinity) in healthy human plasma assessed as EDP-420 9-keto level at 200 mg, po once daily for 3 days measured after 3 days; design: dose 200 mg, time infinity, route oral; settings: in vivo, 72 h
Homo sapiens [8] = experiment: Ratio of AUC (0 to 24 hrs) in healthy human plasma assessed as EDP-420 9-keto level at 200 mg, po once daily for 3 days measured on day 3 to AUC (0 to 24 hrs) in healthy human plasma assessed as EDP-420 9-keto level at 200 mg, po once daily for 3 days measured on day 1; settings: in vivo
Homo sapiens [9] = experiment: Half life in healthy human plasma assessed as EDP-420 9-keto level at 200 mg, po administered as once daily for 3 days measured after 3 days; settings: in vivo, 72 h
Homo sapiens [10] = experiment: Cmax in healthy human plasma assessed as EDP-420 9-keto level at loading dose of 400 mg/day, po once daily for 3 days measured after 1 day by HPLC-tandem mass spectrometry; design: dose 400 mg/day, route oral; settings: in vivo, 24 h
Homo sapiens [11] = experiment: Tmax in healthy human plasma assessed as EDP-420 9-keto level at loading dose of 400 mg/day, po once daily for 3 days measured after 1 day; settings: in vivo, 24 h
Homo sapiens [12] = experiment: Cmax in healthy human plasma assessed as EDP-420 9-keto level at 400 mg administered once on day 1 followed by 200 mg once daily for 2 days during 3 days of treatment measured after 3 days by HPLC-tandem mass spectrometry; design: dose 400 mg; settings: in vivo, 72 h
Homo sapiens [13] = experiment: AUC (0 to last) in healthy human plasma assessed as EDP-420 9-keto level at 400 mg administered once on day 1 followed by 200 mg once daily for 2 days during 3 days of treatment measured after 3 days; design: dose 400 mg, time 0 - last; settings: in vivo, 72 h
Homo sapiens [14] = experiment: AUC (0 to infinity) in healthy human plasma assessed as EDP-420 9-keto level at 400 mg administered once on day 1 followed by 200 mg once daily for 2 days during 3 days of treatment measured after 3 days; design: dose 400 mg, time infinity; settings: in vivo, 72 h
Homo sapiens [15] = experiment: Ratio of AUC (0 to 24 hrs) in healthy human plasma assessed as EDP-420 9-keto level at loading dose of 400 mg/day, po administered as single dose measured on 1 day to AUC (0 to 24 hrs) in healthy human plasma assessed as EDP-420 9-keto level at 400 mg administered once on day 1 followed by 200 mg once daily for 2 days during 3 days of treatment measured on day 3; settings: in vivo
Homo sapiens [16] = experiment: Half life in healthy human plasma assessed as EDP-420 9-keto level at 400 mg administered once on day 1 followed by 200 mg once daily for 2 days during 3 days of treatment measured after 3 days; settings: in vivo, 72 h
Homo sapiens [17] = experiment: Cmax in 8 hrs fasted healthy human plasma assessed as EDP-420 9-keto level at 200 mg, po administered as single dose of suspension by HPLC-tandem mass spectrometry; design: dose 200 mg, route oral; settings: in vivo
Homo sapiens [18] = experiment: Cmax in 8 hrs fasted healthy human plasma assessed as EDP-420 9-keto level at 200 mg, po administered as single dose of two-100 mg capsules by HPLC-tandem mass spectrometry; design: dose 200 mg, route oral; settings: in vivo
Homo sapiens [19] = experiment: Cmax in high-fat fed healthy human plasma assessed as EDP-420 9-keto level at 200 mg, po administered as single dose of two-100 mg capsules by HPLC-tandem mass spectrometry; design: dose 200 mg, route oral; settings: in vivo
Homo sapiens [20] = experiment: Tmax in 8 hrs fasted healthy human plasma assessed as EDP-420 9-keto level at 200 mg, po administered as single dose of suspension; settings: in vivo
Homo sapiens [21] = experiment: Tmax in 8 hrs fasted healthy human plasma assessed as EDP-420 9-keto level at 200 mg, po administered as single dose of two-100 mg capsules; settings: in vivo
Homo sapiens [22] = experiment: Tmax in high-fat fed healthy human plasma assessed as EDP-420 9-keto level at 200 mg, po administered as single dose of two-100 mg capsules; settings: in vivo
Homo sapiens [23] = experiment: AUC (0 to last) in 8 hrs fasted healthy human plasma assessed as EDP-420 9-keto level at 200 mg, po administered as single dose of suspension; design: dose 200 mg, time 0 - last, route oral; settings: in vivo
Homo sapiens [24] = experiment: AUC (0 to last) in 8 hrs fasted healthy human plasma assessed as EDP-420 9-keto level at 200 mg, po administered as single dose of two-100 mg capsules; design: dose 200 mg, time 0 - last, route oral; settings: in vivo
Homo sapiens [25] = experiment: AUC (0 to last) in high-fat fed healthy human plasma assessed as EDP-420 9-keto level at 200 mg, po administered as single dose of two-100 mg capsules; design: dose 200 mg, route oral, time 0 - last; settings: in vivo
Homo sapiens [26] = experiment: AUC (0 to infinity) in 8 hrs fasted healthy human plasma assessed as EDP-420 9-keto level at 200 mg, po administered as single dose of suspension; design: dose 200 mg, time infinity, route oral; settings: in vivo
Homo sapiens [27] = experiment: AUC (0 to infinity) in 8 hrs fasted healthy human plasma assessed as EDP-420 9-keto level at 200 mg, po administered as single dose of two-100 mg capsules; design: dose 200 mg, time infinity, route oral; settings: in vivo
Homo sapiens [28] = experiment: AUC (0 to infinity) in high-fat fed healthy human plasma assessed as EDP-420 9-keto level at 200 mg, po administered as single dose of two-100 mg capsules; design: dose 200 mg, time infinity, route oral; settings: in vivo
Homo sapiens [29] = experiment: Half life in 8 hrs fasted healthy human plasma assessed as EDP-420 9-keto level at 200 mg, po administered as single dose of suspension; settings: in vivo
Homo sapiens [30] = experiment: Half life in 8 hrs fasted healthy human plasma assessed as EDP-420 9-keto level at 200 mg, po administered as single dose of two-100 mg capsules; settings: in vivo
Homo sapiens [31] = experiment: Half life in high-fat fed healthy human plasma assessed as EDP-420 9-keto level at 200 mg, po administered as single dose of two-100 mg capsules; settings: in vivo
Homo sapiens [32] = experiment: Ratio of drug concentration in 8 hrs fasted healthy human plasma at 200 mg, po administered as single dose of suspension to drug concentration in 8 hrs fasted healthy human plasma assessed as EDP-420 9-keto level at 200 mg, po administered as single dose of suspension; settings: in vivo
Homo sapiens [33] = experiment: Ratio of drug concentration in high-fat fed healthy human plasma at 200 mg, po administered as single dose of two-100 mg capsules to drug concentration in high-fat fed healthy human plasma assessed as EDP-420 9-keto level at 200 mg, po administered as single dose of two-100 mg capsules; settings: in vivo
[34] = Drug concentration in Epithelial lining fluid of healthy human at 500 mg, po administered as single dose after 24 hrs; settings: read-out: Drug uptake
[35] = Drug concentration in Alveolar macrophage of healthy human at 500 mg, po administered as single dose after 24 hrs; settings: alveolar macrophages, read-out: Drug uptake

- Cmax (Homo sapiens [1]): 30.5 ng/mL
- Cmax (Homo sapiens [2]): 46 ng/mL
- Tmax (Homo sapiens [3]): 5 h
- Tmax (Homo sapiens [4]): 5 h
- AUC (Homo sapiens [5]): 461 ng·h/mL
- AUC (Homo sapiens [6]): 2134 ng·h/mL
- AUC (Homo sapiens [7]): 2209 ng·h/mL
- Ratio AUC (Homo sapiens [8]): 1.76
- t1/2 (Homo sapiens [9]): 29.5 h
- Cmax (Homo sapiens [10]): 49 ng/mL
- Tmax (Homo sapiens [11]): 5 h
- Cmax (Homo sapiens [12]): 47.6 ng/mL
- AUC (Homo sapiens [13]): 2154 ng·h/mL
- AUC (Homo sapiens [14]): 2228 ng·h/mL
- Ratio AUC (Homo sapiens [15]): 1.11
- t1/2 (Homo sapiens [16]): 27.8 h
- Cmax (Homo sapiens [17]): 24.9 ng/mL
- Cmax (Homo sapiens [18]): 23.7 ng/mL
- Cmax (Homo sapiens [19]): 36.1 ng/mL
- Tmax (Homo sapiens [20]): 5 h
- Tmax (Homo sapiens [21]): 5 h
- Tmax (Homo sapiens [22]): 6 h
- AUC (Homo sapiens [23]): 754 ng·h/mL
- AUC (Homo sapiens [24]): 745 ng·h/mL
- AUC (Homo sapiens [25]): 1220 ng·h/mL
- AUC (Homo sapiens [26]): 842 ng·h/mL
- AUC (Homo sapiens [27]): 837 ng·h/mL
- AUC (Homo sapiens [28]): 1326 ng·h/mL
- t1/2 (Homo sapiens [29]): 29.5 h
- t1/2 (Homo sapiens [30]): 30.5 h
- t1/2 (Homo sapiens [31]): 28.4 h
- Ratio (Homo sapiens [32]): 0.1
- Ratio (Homo sapiens [33]): 0.16
Structure (SMILES): CC[C@H]1OC(=O)[C@H](C)C(=O)[C@H](C)[C@@H](O[C@@H]2O[C@H](C)C[C@H](N(C)C)[C@H]2O)[C@@]2(C)C[C@@H](C)C(=O)[C@H](C)[C@@H](OC/C(=N\OCc3ccc(-n4cccn4)nc3)CO2)[C@]1(C)O

- concentration at 24 h [34]: 90 ng/mL
- concentration at 24 h [35]: 30800 ng/mL
Structure (SMILES): CC[C@H]1OC(=O)[C@H](C)[C@@H](O[C@H]2C[C@@](C)(OC)[C@@H](O)[C@H](C)O2)[C@H](C)[C@@H](O[C@@H]2O[C@H](C)C[C@H](N(C)C)[C@H]2O)[C@](C)(O)C[C@@H](C)CN(C)[C@H](C)[C@@H](O)[C@]1(C)O [AZITHROMYCIN]
